Source: ChEMBL document CHEMBL1155460, “Prediction of acetylcholinesterase inhibitors and characterization of correlative molecular descriptors by machine learning methods” (Eur J Med Chem, 2010)

target: Acetylcholinesterase (Homo sapiens, UniProt P22303)
Sequence (P22303 whole entry): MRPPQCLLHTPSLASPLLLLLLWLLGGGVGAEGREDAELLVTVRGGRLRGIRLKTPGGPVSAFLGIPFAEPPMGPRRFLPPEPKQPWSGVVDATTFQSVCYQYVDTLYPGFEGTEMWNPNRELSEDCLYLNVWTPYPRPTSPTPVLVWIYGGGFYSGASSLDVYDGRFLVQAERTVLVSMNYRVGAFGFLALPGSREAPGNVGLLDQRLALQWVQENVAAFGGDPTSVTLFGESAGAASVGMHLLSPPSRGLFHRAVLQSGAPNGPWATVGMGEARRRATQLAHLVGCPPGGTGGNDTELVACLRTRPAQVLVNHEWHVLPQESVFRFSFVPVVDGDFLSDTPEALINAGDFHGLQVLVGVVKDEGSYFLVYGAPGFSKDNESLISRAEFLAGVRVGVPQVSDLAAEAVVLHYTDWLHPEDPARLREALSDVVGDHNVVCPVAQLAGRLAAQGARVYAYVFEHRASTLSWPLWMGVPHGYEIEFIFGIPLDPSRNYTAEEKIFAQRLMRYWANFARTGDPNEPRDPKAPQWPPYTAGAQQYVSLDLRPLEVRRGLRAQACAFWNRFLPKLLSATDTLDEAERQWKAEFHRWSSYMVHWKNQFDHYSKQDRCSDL

Question: For `CN(CCOCCNC(=S)NC(=O)c1ccccc1)Cc1ccccc1`, which IC50 is on record?
Answer: Its IC50 is 0.12 µM.

Question: Which IC50 does the source give for `CN(CCOCCNC(=S)Nc1ccc(OC(F)(F)F)cc1)Cc1ccccc1` here?
Answer: The IC50 was 1 µM.

Question: With `CN(CCOCCCNC(=S)NC(=O)c1ccccc1)Cc1ccccc1` as the compound, how does the IC50 read?
Answer: The IC50 was 1.1 µM.

Question: `CN(CCOCCNC(=S)NC(=O)c1ccc(-c2ccccc2)cc1)Cc1ccccc1` was tested. Which IC50 did it give?
Answer: Its IC50 is 0.23 µM.

Question: How did the IC50 turn out when `Cc1ccc(C(=O)NC(=S)NCCOCCN(C)Cc2ccccc2)cc1` was run?
Answer: Its IC50 is 0.077 µM.

Question: Which IC50 does the source give for `CCCCCCNC(=O)Oc1cccc(CN(CC)CCCOc2ccc3c(=O)c4ccccc4oc3c2)c1` here?
Answer: Its IC50 is 0.16 µM.

Question: Which IC50 does the source give for `O=C(CCC1CCN(Cc2ccccc2)CC1)c1ccc2c(c1)OCO2` here?
Answer: Its IC50 is 0.03 µM.

Question: For `FC(F)(F)c1cc(-c2ccccc2)nnc1NCCN1CCOCC1`, which IC50 is on record?
Answer: The IC50 was 740 µM.

Question: With `Nc1cc(-c2ccccc2)nnc1NCCN1CCOCC1` as the compound, how does the IC50 read?
Answer: The IC50 was 270 µM.

Question: Which IC50 does the source give for `c1ccc(-c2ccc(NCCCCCN3Cc4ccccc4CN3)nn2)cc1` here?
Answer: The IC50 was 10 µM.

Question: `CN(CCCNc1ccc(-c2ccccc2)nn1)Cc1ccccc1` was tested. Which IC50 did it give?
Answer: Its IC50 is 13 µM.

Question: How did the IC50 turn out when `CN(CCCCCNc1ccc(-c2ccccc2)nn1)Cc1ccccc1` was run?
Answer: The IC50 was 0.74 µM.

Question: `c1ccc(CN2CCC(Nc3ccc(-c4ccccc4)nn3)CC2)cc1` was tested. Which IC50 did it give?
Answer: Its IC50 is 65 µM.

Question: For `O=C1CNc2cc3onc(CCC4CCN(Cc5ccccc5)CC4)c3cc2C1`, which IC50 is on record?
Answer: Its IC50 is 0.00048 µM.

Question: With `CCCCCCNC(=O)Oc1cccc(CN(C)CCCCOc2ccc3c(=O)c4ccccc4oc3c2)c1` as the compound, how does the IC50 read?
Answer: Its IC50 is 0.1 µM.

Question: How did the IC50 turn out when `c1ccc(CN2CCC(CNc3ccc(-c4ccccc4)nn3)CC2)cc1` was run?
Answer: The IC50 was 56 µM.

Question: How did the IC50 turn out when `CCCCCCNC(=O)Oc1cccc(CN(C)CCCCCOc2ccc3c(=O)c4ccccc4oc3c2)c1` was run?
Answer: The IC50 was 0.1 µM.

Question: For `OCc1cc(-c2ccccc2)nnc1NCCN1CCOCC1`, which IC50 is on record?
Answer: Its IC50 is 440 µM.

Question: Which IC50 does the source give for `NCCCCCCCNc1c2c(nc3ccccc13)CCCC2` here?
Answer: The IC50 was 0.319 µM.

Question: With `NCCCCCCCCCNc1c2c(nc3ccccc13)CCCC2` as the compound, how does the IC50 read?
Answer: Its IC50 is 0.131 µM.

Question: Which IC50 does the source give for `CN(C)CCCCCCCNc1c2c(nc3ccccc13)CCCC2` here?
Answer: The IC50 was 0.052 µM.

Question: With `CCCCCCNC(=O)Oc1cccc(CN(CCC)CCCOc2ccc3c(=O)c4ccccc4oc3c2)c1` as the compound, how does the IC50 read?
Answer: Its IC50 is 0.4 µM.

Question: With `CCCCCCNC(=O)Oc1cccc(CN(CCCOc2ccc3c(=O)c4ccccc4oc3c2)C(C)C)c1` as the compound, how does the IC50 read?
Answer: Its IC50 is 0.17 µM.

Question: How did the IC50 turn out when `CCCCCCNC(=O)Oc1cccc(CN(C)CCCOc2ccc3c(=O)c4cccnc4oc3c2)c1` was run?
Answer: The IC50 was 0.042 µM.

Question: `CCCCNC(=O)Oc1cccc(CN(C)CCCOc2ccc3c(=O)ccoc3c2)c1` was tested. Which IC50 did it give?
Answer: The IC50 was 0.25 µM.

Question: Which IC50 does the source give for `NCCCCCCCCCCNc1c2c(nc3ccccc13)CCCC2` here?
Answer: The IC50 was 0.147 µM.

Question: `NCCCCCCCCCCCCNc1c2c(nc3ccccc13)CCCC2` was tested. Which IC50 did it give?
Answer: The IC50 was 0.18 µM.

Question: For `CN(C)CCCCCCCCNc1c2c(nc3ccccc13)CCCC2`, which IC50 is on record?
Answer: The IC50 was 0.047 µM.

Question: How did the IC50 turn out when `CN(C)CCCCCCCCCNc1c2c(nc3ccccc13)CCCC2` was run?
Answer: The IC50 was 0.071 µM.

Question: Which IC50 does the source give for `c1ccc2c(NCCCCCCCCNc3ccncc3)c3c(nc2c1)CCCC3` here?
Answer: The IC50 was 0.0136 µM.

Question: How did the IC50 turn out when `c1ccc(-c2ccc(NCCCN3CCc4ccccc4C3)nn2)cc1` was run?
Answer: The IC50 was 35 µM.

Question: Which IC50 does the source give for `CN(CCCCNc1ccc(-c2ccccc2)nn1)Cc1ccccc1` here?
Answer: The IC50 was 11 µM.

Question: With `CCCCCCNC(=O)Oc1cccc(CN(C)CCCOc2ccc3c(=O)cc(-c4ccccc4)oc3c2)c1` as the compound, how does the IC50 read?
Answer: The IC50 was 0.068 µM.

Question: Which IC50 does the source give for `CN(C)CCCCCCCCCCNc1c2c(nc3ccccc13)CCCC2` here?
Answer: Its IC50 is 0.045 µM.

Question: For `CN(C)CCCCCCCCCCCCNc1c2c(nc3ccccc13)CCCC2`, which IC50 is on record?
Answer: The IC50 was 0.264 µM.

Question: `c1ccc2c(NCCCCCCCNc3ccncc3)c3c(nc2c1)CCCC3` was tested. Which IC50 did it give?
Answer: Its IC50 is 0.0128 µM.

Question: For `c1ccc2c(NCCCCCCCCCNc3ccncc3)c3c(nc2c1)CCCC3`, which IC50 is on record?
Answer: Its IC50 is 0.083 µM.

Question: With `c1ccc2c(NCCCCCCCCCCNc3ccncc3)c3c(nc2c1)CCCC3` as the compound, how does the IC50 read?
Answer: Its IC50 is 0.176 µM.

Question: `c1ccc(-c2ccc(NCN3CCCCC3)nc2)cc1` was tested. Which IC50 did it give?
Answer: The IC50 was 13 µM.

Question: With `c1ccc(-c2cnc(NCN3CCCCC3)nc2)cc1` as the compound, how does the IC50 read?
Answer: Its IC50 is 100 µM.

Question: `c1ccc(NCCCCCCCCCCCCNc2c3c(nc4ccccc24)CCCC3)cc1` was tested. Which IC50 did it give?
Answer: The IC50 was 0.261 µM.

Question: `c1ccc2c(NCCCCCCCNc3c4c(nc5ccccc35)CCCC4)ccnc2c1` was tested. Which IC50 did it give?
Answer: Its IC50 is 0.0101 µM.

Question: How did the IC50 turn out when `c1ccc(-c2ncc(NCN3CCCCC3)nn2)cc1` was run?
Answer: The IC50 was 57 µM.

Question: `c1ccc(-c2nnc(NCN3CCCCC3)s2)cc1` was tested. Which IC50 did it give?
Answer: The IC50 was 54 µM.

Question: For `c1ccc(-c2cnc(NCN3CCCCC3)nn2)cc1`, which IC50 is on record?
Answer: Its IC50 is 60 µM.

Question: `c1ccc(C2=NNC(NCN3CCCCC3)=NC2)cc1` was tested. Which IC50 did it give?
Answer: Its IC50 is 47 µM.

Question: How did the IC50 turn out when `CCCCCCNC(=O)Oc1cccc(CN(C)CCCOc2ccc3ccc(=O)oc3c2)c1` was run?
Answer: The IC50 was 0.013 µM.

Question: How did the IC50 turn out when `Cc1cc(-c2ccccc2)nnc1NCCN1CCCCC1` was run?
Answer: Its IC50 is 5.4 µM.

Question: How did the IC50 turn out when `Cc1cc(-c2ccc(Cl)cc2)nnc1NCCN1CCCCC1` was run?
Answer: Its IC50 is 1.3 µM.

Question: `Cc1cc(-c2ccc3c(c2)OCO3)nnc1NCCN1CCCCC1` was tested. Which IC50 did it give?
Answer: Its IC50 is 1 µM.

Question: With `CN(CCOCCNC(=S)NC(=O)c1ccc2c(c1)C(=O)c1ccccc1-2)Cc1ccccc1` as the compound, how does the IC50 read?
Answer: Its IC50 is 0.03 µM.

Question: `CN(CCOCCNC(=S)NC(=O)c1ccc2c(c1)C(=O)c1ccccc1C2=O)Cc1ccccc1` was tested. Which IC50 did it give?
Answer: The IC50 was 0.006 µM.

Question: For `CN(CCOCCNC(=S)Nc1ccccn1)Cc1ccccc1`, which IC50 is on record?
Answer: Its IC50 is 4 µM.

Question: How did the IC50 turn out when `CCCCCCNC(=O)Oc1cccc(CN(C)CCCOc2ccc3c(=O)ccoc3c2)c1` was run?
Answer: Its IC50 is 0.021 µM.

Question: With `CCN1CCCC1CNc1ccc(-c2ccccc2)nn1` (stereo unspecified) as the compound, how does the IC50 read?
Answer: The IC50 was 62 µM.

Question: For `c1ccc(-c2ccc(NCCN3CCc4ccccc4C3)nn2)cc1`, which IC50 is on record?
Answer: The IC50 was 83 µM.

Question: With `c1ccc(-c2ccc(NCCCN3CCOCC3)nn2)cc1` as the compound, how does the IC50 read?
Answer: Its IC50 is 410 µM.

Question: With `CN(CCNc1ccc(-c2ccccc2)nn1)Cc1ccccc1` as the compound, how does the IC50 read?
Answer: Its IC50 is 170 µM.

Question: How did the IC50 turn out when `Nc1cccc2c1C(=O)N(CCC1CCN(Cc3ccccc3)CC1)C2=O` was run?
Answer: Its IC50 is 0.011 µM.

Question: `O=c1[nH]c2cc(Cl)ccc2c(=O)n1CCC1CCN(Cc2ccccc2)CC1` was tested. Which IC50 did it give?
Answer: Its IC50 is 0.0045 µM.

Question: Which IC50 does the source give for `O=C1c2cccnc2C(=O)N1CCC1CCN(Cc2ccccc2)CC1` here?
Answer: The IC50 was 0.013 µM.

Question: Which IC50 does the source give for `O=c1c2ccccc2ncn1CCC1CCN(Cc2ccccc2)CC1` here?
Answer: Its IC50 is 1.2 µM.

Question: Which IC50 does the source give for `O=C1Cc2ccccc2CN1CCC1CCN(Cc2ccccc2)CC1` here?
Answer: The IC50 was 0.017 µM.

Question: Which IC50 does the source give for `O=C(c1ccccc1)c1ccc2c(c1)C(=O)N(CCC1CCN(Cc3ccccc3)CC1)C2=O` here?
Answer: Its IC50 is 0.0024 µM.

Question: How did the IC50 turn out when `O=C1c2cccc([N+](=O)[O-])c2C(=O)N1CCC1CCN(Cc2ccccc2)CC1` was run?
Answer: The IC50 was 0.009 µM.

Question: For `O=C1Cc2ccccc2C(=O)N1CCC1CCN(Cc2ccccc2)CC1`, which IC50 is on record?
Answer: The IC50 was 0.023 µM.

Question: With `O=c1c2ccccc2ccn1CCC1CCN(Cc2ccccc2)CC1` as the compound, how does the IC50 read?
Answer: Its IC50 is 1.1 µM.

Question: How did the IC50 turn out when `O=C1Nc2ccccc2CN1CCC1CCN(Cc2ccccc2)CC1` was run?
Answer: Its IC50 is 0.013 µM.

Question: With `O=C1CCCCN1CCC1CCN(Cc2ccccc2)CC1` as the compound, how does the IC50 read?
Answer: The IC50 was 0.27 µM.

Question: For `O=C(Nc1cccc2c1C(=O)N(CCC1CCN(Cc3ccccc3)CC1)C2=O)c1ccccc1`, which IC50 is on record?
Answer: The IC50 was 0.34 µM.

Question: For `O=C1c2ccccc2NCN1CCC1CCN(Cc2ccccc2)CC1`, which IC50 is on record?
Answer: Its IC50 is 0.8 µM.

Question: `c1ccc(CN2CCC(CCN3CCc4ccccc4C3)CC2)cc1` was tested. Which IC50 did it give?
Answer: Its IC50 is 1.6 µM.

Question: `O=C1c2ccccc2CCN1CCC1CCN(Cc2ccccc2)CC1` was tested. Which IC50 did it give?
Answer: Its IC50 is 1 µM.

Question: How did the IC50 turn out when `Cc1cc(-c2ccc(Cl)cc2)nnc1NCCN1CCOCC1` was run?
Answer: Its IC50 is 34 µM.

Question: Which IC50 does the source give for `c1ccc(-c2ccc(NCCN3CCOCC3)nn2)cc1` here?
Answer: The IC50 was 1000 µM.

Question: For `c1ccc(-c2ccc(NCCCCN3CCc4ccccc4C3)nn2)cc1`, which IC50 is on record?
Answer: The IC50 was 15 µM.

Question: Which IC50 does the source give for `c1ccc(CN2CCC(CCNc3ccc(-c4ccccc4)nn3)CC2)cc1` here?
Answer: The IC50 was 0.12 µM.

Question: For `NCCCCCCCCNc1c2c(nc3ccccc13)CCCC2`, which IC50 is on record?
Answer: The IC50 was 0.089 µM.

Question: With `c1ccc(-c2ccc(NCCN3CCCCC3)nn2)cc1` as the compound, how does the IC50 read?
Answer: Its IC50 is 13 µM.

Question: `CN(CCOCCNC(=S)NC(=O)c1ccccc1)C1CCCCC1` was tested. Which IC50 did it give?
Answer: Its IC50 is 0.013 µM.

Question: `COc1ccc(NC(=S)NCCOCCN(C)Cc2cccc([N+](=O)[O-])c2)cc1OC` was tested. Which IC50 did it give?
Answer: The IC50 was 1.5 µM.

Question: For `CCN(CCOCCNC(=O)NCc1ccccc1)CC1CCCCC1`, which IC50 is on record?
Answer: Its IC50 is 10 µM.

Question: `c1ccc(-c2cc(-c3ccccc3)c(NCCN3CCOCC3)nn2)cc1` was tested. Which IC50 did it give?
Answer: Its IC50 is 260 µM.

Question: How did the IC50 turn out when `CN(CCOCCNC(=S)Nc1cccc2ccccc12)Cc1ccccc1` was run?
Answer: The IC50 was 10 µM.

Question: How did the IC50 turn out when `CN(CCOCCNC(=O)Nc1ccc([N+](=O)[O-])cc1)Cc1ccccc1` was run?
Answer: The IC50 was 2.3 µM.

Question: With `CN(CCOCCNC(=S)NC1CCCCC1)Cc1ccccc1` as the compound, how does the IC50 read?
Answer: Its IC50 is 1.4 µM.
